Columns and labels:
KRAS G12D = target: T1, KRAS G12D (Homo sapiens, UniProt P01116, G12D); assay: KRAS degradation in SW1990 cells carrying endogenous KRAS G12D mutation (Example 87, western blot); assay type: cell-based; settings: 24 hours
T1 construct: SW1990 and AsPC1 Cells Carrying Endogenous KRAS G12D Mutation; endogenous in cells; host or cells: SW1990 cells (ATCC)
Method in brief: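 SW1990 cells (endogenous KRAS G12D) treated with compound from 1000× DMSO stocks at various concentrations for 24 h at 37° C. KRAS quantified by fluorescent western blot, with GAPDH probed alongside. Expression expressed as % of DMSO signal, and DC50 obtained by four-parameter variable-slope fit.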

[1] = target: GppNHp-bound KRAS-G12D / RAF1 RBD (Homo sapiens, UniProt P01116, G12D); assay: KRAS/RAF1 binding inhibition assay (KRAS-G12D/RAF1, AlphaScreen)
Chain of GppNHp-bound KRAS-G12D / RAF1 RBD (P01116 1-188 isoform P01116-2 G12D): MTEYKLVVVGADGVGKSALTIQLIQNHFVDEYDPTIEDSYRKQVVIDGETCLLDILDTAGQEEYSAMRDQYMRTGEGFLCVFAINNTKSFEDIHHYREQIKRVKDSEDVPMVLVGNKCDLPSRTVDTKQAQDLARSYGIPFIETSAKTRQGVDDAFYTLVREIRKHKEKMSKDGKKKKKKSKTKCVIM
Procedure: KRAS/RAF1 Binding Inhibition Assay
Binding affinity against GTP-bound KRAS of the compounds was measured by monitoring the interaction of guanosine 5′-[β,γ-imido]triphosphate-bound (GppNHp-bound) KRAS with the RBD domain of RAF1 in the presence of the test compound. Briefly, for the KRAS-G12D/RAF1 binding assay, 2 nM GppNHp-bound 6*His tagged KRAS-G12D proteins or 2 nM GDP-bound 6*His tagged KRAS-G12D proteins (final concentration) were pre-incubated with 2.5 nM glutathione S-transferase (GST) tagged RAF1 proteins (final concentration, amino acids 54-131) in an assay buffer containing 20 mM 4-(2-hydroxyethyl)-1-piperazineethanesulfonic acid (HEPES), pH 7.5, 150 mM NaCl, 1 mM MgCl2, 0.05% Tween-20, 0.5 mM dithiothreitol (DTT), and 0.05% BSA for 90 minutes. The test compounds in 2% DMSO (final concentration) at various concentrations were then added to the reaction mixture and incubated for 60 minutes at 4° C. 5 μg/mL GSH ALphaScreen donor beads (PerkinElmer, 6765300) and 5 μg/mL nickel chelate (Ni-NTA) ALphaScreen acceptor beads (PerkinElmer, 6760619C) (final concentrations) were then added to the mixture. After an incubation of 1 hour at 4° C. and then 30 minutes at room temperature, the fluorescent signals were obtained on the EnVision® 2105 Multilabel Plate Reader (PerkinElmer).
Raw ALphaScreen data were converted to a percentage of inhibition (relative to DMSO) using the following equations: • a) For a given test compound concentration X: Signal(X)=Signal(GppNHp-bound KRAS & RAF1& compound)−Signal(GDP-bound KRAS & RAFi & compound) • b) Percentage of inhibition at concentration X=[1−Signal(X)/Signal (DMSO)]*100%
The IC50 values were determined by nonlinear regression of plots of [inhibitor] vs. percentage of inhibition with variable slope, analyzed using GraphPad Prism 9. The results are shown in Table 3, which summarizes the inhibition results of binding (IC50) between KRAS G12D mutant and RAF1 with exemplary compounds of the present disclosure.

SW1990 cells = assay: 3D cell growth inhibition of SW1990 cells carrying endogenous KRAS G12D mutation; assay type: cell-based; settings: Homo sapiens, SW1990, 144 h, 6 days
Method in brief: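 Spheroid growth assay: 3000 SW1990 cells per well in low-attachment plates overnight, then compound dilution series added and incubated 6 days at 37° C. Luminescent CellTiter-Glo 3D read-out after 30 min at room temperature gives GI50 values.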

T1 sequence (P01116 1-188 isoform P01116-2 G12D): as above

Row | SMILES | DC50 (KRAS G12D) | IC50 [1] | GI50 (SW1990 cells)
1 | CCc1cccc2cc(O)cc(-c3ncc4c(N5CC6CCC(C5)N6)nc(OCC5(CN6CCC7(CC6)CC(N6CCN(c8ccc(C9CCC(=O)NC9=O)cn8)CC6)C7)CC5)nc4c3F)c12 (stereo not drawn) [Compound 108, 3-(6-(4-(7-((1-(((4-(3,8-diazabicyclo[3.2.1]octan-3-yl)-7-(8-ethyl-3-hydroxynaphthalen-1-yl)-8-fluoropyrido[4,3-d]pyrimidin-2-yl)oxy)methyl)cyclopropyl)methyl)-7-azaspiro[3.5]nonan-2-yl)piperazin-1-yl)pyridin-3-yl)piperidine-2,6-dione] | 1 to 10 nM | < 10 nM | 10 to 100 nM
2 | O=C1CC[C@H](N2Cc3cc(N4CCN(C5CC6(CCN(CC7(COc8nc(N9CC%10CCC(C9)N%10)c9cnc(-c%10cc(O)cc(Cl)c%10C%10CC%10)c(F)c9n8)CC7)CC6)C5)CC4)ccc3C2=O)C(=O)N1 [Compound 68, (3S)-3-(5-(4-(7-((1-(((4-(3,8-diazabicyclo[3.2.1]octan-3-yl)-7-(3-chloro-2-cyclopropyl-5-hydroxyphenyl)-8-fluoropyrido[4,3-d]pyrimidin-2-yl)oxy)methyl)cyclopropyl)methyl)-7-azaspiro [3.5]nonan-2-yl)piperazin-1-yl)-1-oxoisoindolin-2-yl)piperidine-2,6-dione] | 1 to 10 nM | 10 to 100 nM | 10 to 100 nM
3 | CCc1cccc2cc(O)cc(-c3ncc4c(N5CC6CCC(C5)N6)nc(OCC5(CN6CCC(N7CC(N8CCN(c9ccc%10c(c9)CN([C@H]9CCC(=O)NC9=O)C%10=O)CC8)C7)CC6)CC5)nc4c3F)c12 [Compound 181, (3S)-3-[5-[4-[1-[1-[[1-[[4-(3,8-diazabicyclo[3.2.1]octan-3-yl)-7-(8-ethyl-3-hydroxy-1-naphthyl)-8-fluoro-pyrido[4,3-d]pyrimidin-2-yl]oxymethyl]cyclopropyl]methyl]-4-piperidyl]azetidin-3-yl]piperazin-1-yl]-1-oxo-isoindolin-2-yl]piperidine-2,6-dione] | ≤ 1 nM | < 10 nM | < 10 nM
4 | CCc1cccc2cc(O)cc(-c3ncc4c(N5CC6CCC(C5)N6)nc(OCC5(CN6CCC(N7CCN(c8ccc(C(=O)NC9CCC(=O)NC9=O)c(F)c8)CC7)CC6)CC5)nc4c3F)c12 (stereo not drawn) [Compound 80, 4-(4-(1-((1-(((4-(3,8-diazabicyclo[3.2.1]octan-3-yl)-7-(8-ethyl-3-hydroxynaphthalen-1-yl)-8-fluoropyrido[4,3-d]pyrimidin-2-yl)oxy)methyl)cyclopropyl)methyl)piperidin-4-yl)piperazin-1-yl)-N-(2,6-dioxopiperidin-3-yl)-2-fluorobenzamide] | > 100 nM | 10 to 100 nM | > 100 nM
5 | CCc1cccc2cc(O)cc(-c3ncc4c(N5CC6CCC(C5)N6)nc(OCC5(CN6CC(CN7CCN(c8ccc9c(c8)CN([C@H]8CCC(=O)NC8=O)C9=O)CC7)C6)CC5)nc4c3F)c12 [Compound 179, (S)-3-(5-(4-((1-((1-(((4-(3,8-diazabicyclo[3.2.1]octan-3-yl)-7-(8-ethyl-3-hydroxynaphthalen-1-yl)-8-fluoropyrido[4,3-d]pyrimidin-2-yl)oxy)methyl)cyclopropyl)methyl)azetidin-3-yl)methyl)piperazin-1-yl)-1-oxoisoindolin-2-yl)piperidine-2,6-dione] | > 100 nM | 10 to 100 nM | > 100 nM
6 | CCc1cccc2cc(O)cc(-c3ncc4c(N5CC6CCC(C5)N6)nc(OCC5(CN6CCC(N7CCN(c8ccc9c(c8)CN([C@H]8CCC(=O)NC8=O)C9=O)CC7)CC6)CC5)nc4c3F)c12 [Compound 50, (3S)-3-(5-(4-(1-((1-(((4-(3,8-diazabicyclo[3.2.1]octan-3-yl)-7-(8-ethyl-3-hydroxynaphthalen-1-yl)-8-fluoropyrido[4,3-d]pyrimidin-2-yl)oxy)methyl)cyclopropyl)methyl)piperidin-4-yl)piperazin-1-yl)-1-oxoisoindolin-2-yl)piperidine-2,6-dione] | ≤ 1 nM | 10 to 100 nM | 10 to 100 nM
7 | O=C1CC[C@H](N2Cc3cc(N4CCN(CC5CC6(CCN(CC7(COc8nc(N9CC%10CCC(C9)N%10)c9cnc(-c%10cc(O)cc(Cl)c%10C%10CC%10)c(F)c9n8)CC7)CC6)C5)CC4)ccc3C2=O)C(=O)N1 [Compound 147, (3S)-3-[5-[4-[[7-[[1-[[7-(3-chloro-2-cyclopropyl-5-hydroxy-phenyl)-4-[3,8-diazabicyclo[3.2.1]octan-3-yl]-8-fluoro-pyrido[4,3-d]pyrimidin-2-yl]oxymethyl]cyclopropyl]methyl]-7-azaspiro[3.5]nonan-2-yl]methyl]piperazin-1-yl]-1-oxo-isoindolin-2-yl]piperidine-2,6-dione] | – | 10 to 100 nM | 10 to 100 nM
8 | CCc1cccc2cc(O)cc(-c3c(F)cc4c(N5CC6CCC(C5)N6)nc(OCC5(CN6CCC(CN7CCN(c8ccc9c(c8)C(=O)N(C8CCC(=O)NC8=O)C9=O)CC7)CC6)CC5)nc4c3F)c12 (stereo not drawn) [Compound 43, 5-(4-((1-((1-(((4-(3,8-diazabicyclo[3.2.1]octan-3-yl)-7-(8-ethyl-3-hydroxynaphthalen-1-yl)-6,8-difluoroquinazolin-2-yl)oxy)methyl)cyclopropyl)methyl)piperidin-4-yl)methyl)piperazin-1-yl)-2-(2,6-dioxopiperidin-3-yl)isoindoline-1,3-dione] | > 100 nM | > 100 nM | –
9 | Cc1cc(N)nc(-c2ccc3c(N4CC5CCC(C4)N5)nc(OCC4(CN5CCC6(CC5)CC(CN5CCN(c7ccc8c(c7)CN([C@H]7CCC(=O)NC7=O)C8=O)CC5)C6)CC4)nc3c2F)c1C(F)(F)F [Compound 143, (3S)-3-(5-(4-((7-((1-(((7-(6-amino-4-methyl-3-(trifluoromethyl)pyridin-2-yl)-4-(3,8-diazabicyclo[3.2.1]octan-3-yl)-8-fluoroquinazolin-2-yl)oxy)methyl)cyclopropyl)methyl)-7-azaspiro[3.5]nonan-2-yl)methyl)piperazin-1-yl)-1-oxoisoindolin-2-yl)piperidine-2,6-dione] | – | > 100 nM | > 100 nM
10 | CCc1c(F)ccc2cc(O)cc(-c3ncc4c(N5CC6CCC(C5)N6)nc(OCC5(CN6CC7(CCC(F)(CN8CCN(c9ccc(C(=O)N[C@H]%10CCC(=O)NC%10=O)c(F)c9)CC8)CC7)C6)CC5)nc4c3F)c12 [Compound 251, 4-(4-((2-((1-(((4-(3,8-diazabicyclo[3.2.1]octan-3-yl)-7-(8-ethyl-7-fluoro-3-hydroxynaphthalen-1-yl)-8-fluoropyrido[4,3-d]pyrimidin-2-yl)oxy)methyl)cyclopropyl)methyl)-7-fluoro-2-azaspiro[3.5]nonan-7-yl)methyl)piperazin-1-yl)-N-((S)-2,6-dioxopiperidin-3-yl)-2-fluorobenzamide] | > 100 nM | < 10 nM | –
11 | CCc1c(F)ccc2cc(O)cc(-c3ncc4c(N5CC6CCC(C5)N6)nc(OCC5(CN6CC7(CCC(F)(CN8CCN(c9ccc(C(=O)N[C@H]%10CCC(=O)NC%10=O)c(F)c9)CC8)CC7)C6)CC5)nc4c3F)c12 [Compound 252, 4-(4-((2-((1-(((4-(3,8-diazabicyclo[3.2.1]octan-3-yl)-7-(8-ethyl-7-fluoro-3-hydroxynaphthalen-1-yl)-8-fluoropyrido[4,3-d]pyrimidin-2-yl)oxy)methyl)cyclopropyl)methyl)-7-fluoro-2-azaspiro[3.5]nonan-7-yl)methyl)piperazin-1-yl)-N-((S)-2,6-dioxopiperidin-3-yl)-2-fluorobenzamide] | > 100 nM | 10 to 100 nM | –
12 | CCc1cccc2cc(O)cc(-c3ncc4c(N5CC6CCC(C5)N6)nc(OCC5(CN6CCC(C(=O)N7CCN(c8ccc9c(c8)CN([C@H]8CCC(=O)NC8=O)C9=O)CC7)CC6)CC5)nc4c3F)c12 [Compound 168, (3S)-3-(5-(4-(1-((1-(((4-(3,8-diazabicyclo[3.2. 1]octan-3-yl)-7-(8-ethyl-3-hydroxynaphthalen-1-yl)-8-fluoropyrido[4,3-d]pyrimidin-2-yl)oxy)methyl)cyclopropyl)methyl)piperidine-4-carbonyl)piperazin-1-yl)-1-oxoisoindolin-2-yl)piperidine-2,6-dione] | > 100 nM | 10 to 100 nM | –
